# According to patent US20050112573A1, “Method of detecting toxic substance” (priority 2001, published 2005):
# System: yeast genes (level of expressed mRNA)
# Assay: DNA chip analysis of expressed mRNA of yeast genes after 2 h culture with a toxic chemical substance
# Type: cell-based, Saccharomyces cerevisiae S288C
# Procedure: Yeast (Saccharomyces cerevtisiae S288C (α SUC2mal mel gap2 CUP1)) were cultured at 25° C. on YPD medium (yeast extract 1%, polypepton 2%, glucose 2%). One of toxic chemical substances was added to the cell at logarithmic growth phase, and the cell was further cultured for two hours. Cell was cultured without any chemical substance in the same condition, and was used as control. Concentrations of the chemical substances were defined to inhibit the growth of the yeast but not lead to death.
# After the completion of cultivation, the culture was centrifuged to collect the cells. To the cells, sodium acetate buffer (50 mM sodium acetate, 10 mM EDTA, 1% SDS) was added, and the mixture was shaken at 65° C. for five minutes, followed by returning to room temperature, and obtaining the supernatant, which procedure was repeated two times. To the supernatant, ½ amount of a solution of phenol/chloroform was added, and the mixture was centrifuged to give a supernatant, which was added with an equal amount of chloroform, and the mixture was centrifuged to give a supernatant. To the supernatant, an equal amount of isopropanol containing 0.3 M sodium acetate was added, and the mixture was allowed to stand at room temperature for 30 minutes, after which the mixture was centrifuged to give a sediment of the whole RNAs. Seventy % ethanol was added to the sediment, and the mixture was again centrifuged to give a sediment, which was then dried and dissolved in water. mRNA was isolated from the whole RNAs as followings. In view of the fact that a poly A chain is attached to the 3′ terminus of mRNA, a polynucleotide having a poly T structure which was immobilized on the surface of latex beads was used to trap the mRNA, and then the mRNA was washed and eluted with spine column (Oligotex-dT30<Super>mRNA Purification Kit, Takara). Reverse transcription of the mRNA was conducted with a reverse transcriptase (Super Script II Reverse Transcriptase; catalogue No. 18064-014, GibcoBRL) using fluorescence-labeled nucleotides to give cDNAs that were introduced with Cy3-dUTP or Cy5-dUTP during the reverse transcription.
# The labeled cDNAs were dissolved in TE buffer (10 mM Tris-HCl/1 mM EDTA, pH8.0), and the solution was dropped on the DNA chip containing the whole genes of yeast (DNA Chip Research Inc. Japan) so that the cDNAs were hybridized on the DNA chip at 65° C. for over 12 hours. The fluoresces intensity of the DNA chip was read with a scanner, and the ratio relative to the fluorescence intensity resulting from the absence of chemical substance was estimated as the following, which is shown in Tables 1 to 9: [formula]
# In the Tables, “Intensity” indicated in the rightmost column is a value of the level of expressed mRNA of each gene in control cells as divided by the average level of the expressions of the whole genes.
compound,measurement,setting,value
"C[S+](C)[O-] [(15), dimethylsulfoxide]",The level of expressed mRNA in the presence of chemical substance/absence: YGR293C,gene YGR293C,0.7
same,The level of expressed mRNA in the presence of chemical substance/absence: YHL006C,gene YHL006C,0.6
same,The level of expressed mRNA in the presence of chemical substance/absence: YHL021C,gene YHL021C,1.2
same,The level of expressed mRNA in the presence of chemical substance/absence: YHL037C,gene YHL037C,0.8
same,level of expressed mRNA in the presence of chemical substance/in its absence,gene YHR037W,1.1
same,The level of expressed mRNA in the presence of chemical substance/absence: YHR083W,gene YHR083W,1.3
same,level of expressed mRNA in the presence of chemical substance/in its absence,gene YHR092C,0.2
same,The level of expressed mRNA in the presence of chemical substance/absence: YHR095W,gene YHR095W,0.8
same,The level of expressed mRNA in the presence of chemical substance/absence: YHR105W,gene YHR105W,0.9
same,The level of expressed mRNA in the presence of chemical substance/absence: YHR134W,gene YHR134W,1.0
same,level of expressed mRNA in the presence of chemical substance/in its absence,gene YHR137W,2.8
same,The level of expressed mRNA in the presence of chemical substance/absence: YHR180W,gene YHR180W,0.8
same,The level of expressed mRNA in the presence of chemical substance/absence: YHR181W,gene YHR181W,1.4
same,level of expressed mRNA in the presence of chemical substance/in its absence,gene YHR190W,1.3
same,level of expressed mRNA in the presence of chemical substance/in its absence,gene YIL033C,1.0
same,The level of expressed mRNA in the presence of chemical substance/absence: YIL108W,gene YIL108W,1.8
same,The level of expressed mRNA in the presence of chemical substance/absence: YIL127C,gene YIL127C,0.7
same,level of expressed mRNA in the presence of chemical substance/in its absence,gene YIL154C,4.3
same,The level of expressed mRNA in the presence of chemical substance/absence: YIL165C,gene YIL165C,0.8
same,level of expressed mRNA in the presence of chemical substance/in its absence,gene YIL167W,0.6
same,level of expressed mRNA in the presence of chemical substance/in its absence,gene YIR035C,1.4
same,The level of expressed mRNA in the presence of chemical substance/absence: YJL017W,gene YJL017W,1.1
same,The level of expressed mRNA in the presence of chemical substance/absence: YJL032W,gene YJL032W,1.0
same,The level of expressed mRNA in the presence of chemical substance/absence: YJL037W,gene YJL037W,1.6
same,The level of expressed mRNA in the presence of chemical substance/absence: YJL049W,gene YJL049W,0.8
same,level of expressed mRNA in the presence of chemical substance/in its absence,gene YJL088W,5.7
same,The level of expressed mRNA in the presence of chemical substance/absence: YJL097W,gene YJL097W,1.1
same,level of expressed mRNA in the presence of chemical substance/in its absence,gene YJL132W,1.1
same,level of expressed mRNA in the presence of chemical substance/in its absence,gene YJL196C,0.6
same,The level of expressed mRNA in the presence of chemical substance/absence: YJR030C,gene YJR030C,0.8
same,The level of expressed mRNA in the presence of chemical substance/absence: YJR044C,gene YJR044C,1.6
same,level of expressed mRNA in the presence of chemical substance/in its absence,gene YJR142W,0.6
same,level of expressed mRNA in the presence of chemical substance/in its absence,gene YJR148W,3.2
same,level of expressed mRNA in the presence of chemical substance/in its absence,gene YJR159W,2.3
same,The level of expressed mRNA in the presence of chemical substance/absence: YKL051W,gene YKL051W,1.5
same,The level of expressed mRNA in the presence of chemical substance/absence: YKL059C,gene YKL059C,1.1
same,level of expressed mRNA in the presence of chemical substance/in its absence,gene YKL067W,1.1
same,The level of expressed mRNA in the presence of chemical substance/absence: YKL090W,gene YKL090W,0.8
same,The level of expressed mRNA in the presence of chemical substance/absence: YKL094W,gene YKL094W,1.0
same,The level of expressed mRNA in the presence of chemical substance/absence: YKL097C,gene YKL097C,0.8
same,The level of expressed mRNA in the presence of chemical substance/absence: YKL100C,gene YKL100C,1.7
same,level of expressed mRNA in the presence of chemical substance/in its absence,gene YKR039W,1.7
same,The level of expressed mRNA in the presence of chemical substance/absence: YKR040C,gene YKR040C,1.1
same,The level of expressed mRNA in the presence of chemical substance/absence: YLR097C,gene YLR097C,0.9
same,level of expressed mRNA in the presence of chemical substance/in its absence,gene YLR142W,1.6
same,level of expressed mRNA in the presence of chemical substance/in its absence,gene YLR180W,2.5
same,The level of expressed mRNA in the presence of chemical substance/absence: YLR226W,gene YLR226W,1.3
same,level of expressed mRNA in the presence of chemical substance/in its absence,gene YLR273C,2.6
same,level of expressed mRNA in the presence of chemical substance/in its absence,gene YLR300W,2.7
same,level of expressed mRNA in the presence of chemical substance/in its absence,gene YLR307W,3.9
same,The level of expressed mRNA in the presence of chemical substance/absence: YLR338W,gene YLR338W,1.5
same,The level of expressed mRNA in the presence of chemical substance/absence: YLR339C,gene YLR339C,1.0
same,The level of expressed mRNA in the presence of chemical substance/absence: YLR392C,gene YLR392C,0.5
same,The level of expressed mRNA in the presence of chemical substance/absence: YLR415C,gene YLR415C,1.0
same,The level of expressed mRNA in the presence of chemical substance/absence: YLR427W,gene YLR427W,0.8
same,The level of expressed mRNA in the presence of chemical substance/absence: YML013W,gene YML013W,2.2
same,The level of expressed mRNA in the presence of chemical substance/absence: YML029W,gene YML029W,0.8
same,The level of expressed mRNA in the presence of chemical substance/absence: YML041C,gene YML041C,1.0
same,The level of expressed mRNA in the presence of chemical substance/absence: YML079W,gene YML079W,0.3
same,level of expressed mRNA in the presence of chemical substance/in its absence,gene YML110C,1.3
same,The level of expressed mRNA in the presence of chemical substance/absence: YML118W,gene YML118W,2.2
same,The level of expressed mRNA in the presence of chemical substance/absence: YMR068W,gene YMR068W,2.2
same,The level of expressed mRNA in the presence of chemical substance/absence: YMR071C,gene YMR071C,0.8
same,level of expressed mRNA in the presence of chemical substance/in its absence,gene YMR105C,0.9
same,The level of expressed mRNA in the presence of chemical substance/absence: YMR114C,gene YMR114C,1.2
same,The level of expressed mRNA in the presence of chemical substance/absence: YMR115W,gene YMR115W,1.2
same,The level of expressed mRNA in the presence of chemical substance/absence: YMR160W,gene YMR160W,1.5
same,level of expressed mRNA in the presence of chemical substance/in its absence,gene YMR189W,5.6
same,The level of expressed mRNA in the presence of chemical substance/absence: YMR258C,gene YMR258C,0.6
same,level of expressed mRNA in the presence of chemical substance/in its absence,gene YMR271C,0.6
same,level of expressed mRNA in the presence of chemical substance/in its absence,gene YMR272C,1.1
same,level of expressed mRNA in the presence of chemical substance/in its absence,gene YMR296C,6.7
same,level of expressed mRNA in the presence of chemical substance/in its absence,gene YNL012W,1.6
same,The level of expressed mRNA in the presence of chemical substance/absence: YNL026W,gene YNL026W,0.8
same,level of expressed mRNA in the presence of chemical substance/in its absence,gene YNL037C,0.9
same,level of expressed mRNA in the presence of chemical substance/in its absence,gene YNL045W,0.8
same,The level of expressed mRNA in the presence of chemical substance/absence: YNL058C,gene YNL058C,2.2
same,The level of expressed mRNA in the presence of chemical substance/absence: YNL063W,gene YNL063W,0.7
same,level of expressed mRNA in the presence of chemical substance/in its absence,gene YNL104C,2.5
same,level of expressed mRNA in the presence of chemical substance/in its absence,gene YNL106C,3.3
same,level of expressed mRNA in the presence of chemical substance/in its absence,gene YNL130C,2.5
same,level of expressed mRNA in the presence of chemical substance/in its absence,gene YNL169C,3.4
same,The level of expressed mRNA in the presence of chemical substance/absence: YNL176C,gene YNL176C,0.8
same,The level of expressed mRNA in the presence of chemical substance/absence: YNL181W,gene YNL181W,1.0
same,The level of expressed mRNA in the presence of chemical substance/absence: YNL191W,gene YNL191W,1.0
same,The level of expressed mRNA in the presence of chemical substance/absence: YNL194C,gene YNL194C,0.5
same,The level of expressed mRNA in the presence of chemical substance/absence: YNL200C,gene YNL200C,0.8
same,The level of expressed mRNA in the presence of chemical substance/absence: YNL212W,gene YNL212W,0.9
same,level of expressed mRNA in the presence of chemical substance/in its absence,gene YNL231C,0.9
same,The level of expressed mRNA in the presence of chemical substance/absence: YNL253W,gene YNL253W,0.5
same,The level of expressed mRNA in the presence of chemical substance/absence: YNL265C,gene YNL265C,0.6
same,The level of expressed mRNA in the presence of chemical substance/absence: YNL276C,gene YNL276C,0.5
same,level of expressed mRNA in the presence of chemical substance/in its absence,gene YNL322C,3.7
same,level of expressed mRNA in the presence of chemical substance/in its absence,gene YNR002C,1.0
same,level of expressed mRNA in the presence of chemical substance/in its absence,gene YNR019W,1.6
same,level of expressed mRNA in the presence of chemical substance/in its absence,gene YNR033W,1.3
same,The level of expressed mRNA in the presence of chemical substance/absence: YNR051C,gene YNR051C,1.2
same,level of expressed mRNA in the presence of chemical substance/in its absence,gene YNR059W,1.0
same,The level of expressed mRNA in the presence of chemical substance/absence: YOL026C,gene YOL026C,0.9
same,The level of expressed mRNA in the presence of chemical substance/absence: YOL030W,gene YOL030W,0.9
same,level of expressed mRNA in the presence of chemical substance/in its absence,gene YOL058W,2.7
same,level of expressed mRNA in the presence of chemical substance/in its absence,gene YOL126C,1.4
same,level of expressed mRNA in the presence of chemical substance/in its absence,gene YOL143C,1.0
same,level of expressed mRNA in the presence of chemical substance/in its absence,gene YOL153C,1.2
same,level of expressed mRNA in the presence of chemical substance/in its absence,gene YOL157C,1.1
same,The level of expressed mRNA in the presence of chemical substance/absence: YOR022C,gene YOR022C,0.8
same,The level of expressed mRNA in the presence of chemical substance/absence: YOR087W,gene YOR087W,0.8
same,The level of expressed mRNA in the presence of chemical substance/absence: YOR088W,gene YOR088W,0.8
same,level of expressed mRNA in the presence of chemical substance/in its absence,gene YOR099W,1.5
same,level of expressed mRNA in the presence of chemical substance/in its absence,gene YOR130C,1.0
same,level of expressed mRNA in the presence of chemical substance/in its absence,gene YOR136W,1.2
same,The level of expressed mRNA in the presence of chemical substance/absence: YOR138C,gene YOR138C,1.0
same,The level of expressed mRNA in the presence of chemical substance/absence: YOR155C,gene YOR155C,0.9
same,The level of expressed mRNA in the presence of chemical substance/absence: YOR253W,gene YOR253W,1.1
